This test has as its target T1, VmFbpA (ferric ion-binding protein A) (Vibrio metschnikovii, UniProt A0A9X0R8I3).
T1 construct: gene H8Q88_11990; WP_004394209.1 without the signal peptide '[…]'; 6× His-tag-free apo VmFbpA
The experiment in a line: ITC of RA into apo VmFbpA (single-site model); supported by UV-vis peak shift and Fe3+ pull-down inhibition by ICP-MS (IC50 […]).

SMILES strings stand for the structures.

T1 sequence (A0A9X0R8I3 entry or part of it): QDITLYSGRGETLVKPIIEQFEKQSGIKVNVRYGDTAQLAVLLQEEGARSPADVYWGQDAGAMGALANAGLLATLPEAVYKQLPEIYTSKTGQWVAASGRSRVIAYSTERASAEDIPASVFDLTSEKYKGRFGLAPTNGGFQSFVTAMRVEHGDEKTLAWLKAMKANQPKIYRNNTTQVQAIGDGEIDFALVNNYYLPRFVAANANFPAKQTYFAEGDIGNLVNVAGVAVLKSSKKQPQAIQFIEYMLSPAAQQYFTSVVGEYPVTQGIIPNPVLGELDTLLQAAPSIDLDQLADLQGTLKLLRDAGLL

In the case of `O=C(/C=C/c1ccc(O)c(O)c1)O[C@H](Cc1ccc(O)c(O)c1)C(=O)O` [RA, rosmarinic acid], the Kd worked out at 8 ± 1 µM.

Values taken from paper PMC8657459, “Rosmarinic Acid and Sodium Citrate Have a Synergistic Bacteriostatic Effect against Vibrio Species by Inhibiting Iron Uptake” (International Journal of Molecular Sciences, 2021).
